Legend:
S1R = target: T1, S1R (Homo sapiens, UniProt Q99720); test: S1R binding assay, [3H](+)-pentazocine, Jurkat cell membranes
T1 construct: host or cells: Jurkat cell membranes
Method: (§1) The binding assays were performed by Eurofins Cerep (Poitiers, France) according to Ganapathy. Briefly, S1R)binding assay was carried out by incubating Jurkat cell membranes ([…] protein per tube) with [^3H] (+)-pentazocine (15 nM) and a range of concentrations of test compounds at 37 °C for 2 h in 5 mM Tris HCl buffer (pH = 7.4). The S2R binding assay was performed by incubating Jurkat cell membranes ([…] protein per tube) with [^3H]-DTG (25 nM) in the presence of (+)-pentazocine (1 mM), to saturate S1R, and a range of concentrations of test compounds at room temperature for 1 h in 5 mM Tris HCl buffer (pH = 7.4). Bound radioactivity was measured using liquid scintillation counting. Nonspecific binding was determined in both assays, under similar conditions, as remaining in the presence of […] unlabeled haloperidol. Inhibition constants (Ki) were calculated from the IC50 values according to the method of Cheng and Prusoff.

S2R = target: T2, S2R (Homo sapiens, UniProt Q5BJF2); test: S2R binding assay, [3H]-DTG, Jurkat cell membranes
T2 construct: host or cells: Jurkat cell membranes
Method: as §1

HepG2 = test: Cytotoxicity analysis in HepG2 cells; assay type: cell-based, human; conditions: % at 10 µM
Method: Cytotoxicity analysis was performed by Eurofins Cerep (Poitiers, France) according to [74]. Compound 7i was evaluated at 10 µM in the HepG2 cell line. Cell number, nuclear size, mitochondrial membrane potential, intracellular free calcium and membrane permeability were analyzed. % inhibition or % increase were calculated.

[1] = system: dizocilpine-induced learning deficits; test: Dizocilpine-induced learning deficits, Y-maze spontaneous alternation; assay type: in vivo, male Swiss mice
Method: (§2) The activity of compound 7i was evaluated in regard to its ability to reverse dizocilpine-induced learning deficits. Two behavioral tests were performed by Amylgen (Montferrier-sur-Lez, France) on male Swiss mice (aged 6–9 weeks). All compounds (7i and controls) were intraperitoneally injected.
(§3) Animals were tested for spontaneous alternation performance in the Y-maze, an index of spatial working memory. Made of grey polyvinylchloride, the Y-maze has an arm which is 40 cm long, 13 cm high and 3 cm wide at the bottom and 10 cm wide at the top, converging at an equal angle. Each mouse was placed at the end of one arm and allowed to move freely through the maze during an 8-min session. The series of arm entries, including possible returns into the same arm, were checked visually. An alternation was defined as entries into all three arms on consecutive occasions. The number of maximum alternations was therefore the total number of arm entries minus two, and the percentage of alternation was calculated as: (actual alternations/maximum alternations) × 100. Parameters included the percentage of alternation (memory index) and the total number of arm entries (exploration index). Animals showing extreme behavior (alternation < 20% or >90% or number of arm entries < 10) are usually discarded from the calculations. […] Step-through latency (the latency in time spent to enter the dark compartment) and the number of vocalizations were recorded. […] Step-through latency was recorded up to 300 s. When either the mouse entered the dark compartment or 300 s had elapsed (they were therefore manually placed in it), escape latency (latency to exit from the dark compartment) was recorded with a value of up to 300 s. […]

[2] = system: dizocilpine-induced learning deficits; test: Dizocilpine-induced learning deficits, step-through passive avoidance; assay type: in vivo, male Swiss mice
Method: as §2, §3

S. typhimurium TA1535 = conditions: 7i 40 µg/plate
S. typhimurium TA100 = conditions: 7i 40 µg/plate
SH-SY5Y = system: SH-SY5Y; set-up: method as in PMID 28756263; conditions: cited from earlier work
S. typhimurium TA1537 = test: Ames test; conditions: 7i 40 µg/plate
five bacterial strains = test: Ames test, overall conclusion on five bacterial strains; conditions: ±S9, 0.37 to 40 µg/plate
[3] = +S9, positive control 2-anthramine 0.5
[4] = −S9, positive control MNNG 0.25

T1 sequence (Q99720 whole entry): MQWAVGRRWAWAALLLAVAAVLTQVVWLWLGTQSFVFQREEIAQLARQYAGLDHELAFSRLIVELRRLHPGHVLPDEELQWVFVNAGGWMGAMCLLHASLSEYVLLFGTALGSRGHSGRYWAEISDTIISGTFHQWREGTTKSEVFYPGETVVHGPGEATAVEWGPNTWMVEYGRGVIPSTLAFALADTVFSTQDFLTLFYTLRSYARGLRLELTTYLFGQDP
T2 sequence (Q5BJF2 whole entry): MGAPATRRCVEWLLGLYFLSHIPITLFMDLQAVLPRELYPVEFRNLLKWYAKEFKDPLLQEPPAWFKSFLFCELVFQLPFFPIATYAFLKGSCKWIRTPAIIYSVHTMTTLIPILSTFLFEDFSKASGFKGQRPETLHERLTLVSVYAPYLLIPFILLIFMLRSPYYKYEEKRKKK

Structure (SMILES) | Ki (S1R) [nM] | Ki (S2R) [nM] | HepG2 Cell number (HepG2) [%] | HepG2 Intracell free calcium (HepG2) [%] | HepG2 Membrane permeability (HepG2) [%] | HepG2 Mitochondrial membrane potential (HepG2) [%] | HepG2 Nuclear size (HepG2) [%] | dizocilpine-induced learning deficits, Y-maze spontaneous alternation ([1]; 0.5 mg/kg i.p., dizocilpine 0.15 mg/kg) | beneficial effect in Y-maze with NE-100 treatment ([1]; plus NE-100 at 3 mg/kg i.p.) | dizocilpine-induced learning deficits, passive avoidance ([2]; 0.1 and 0.5 mg/kg i.p., dizocilpine 0.15 mg/kg) | beneficial effect in passive avoidance with NE-100 treatment ([2]; plus NE-100 at 3 mg/kg i.p.) | Ames TA1535 +S9 (Mean revertants/well per title) (S. typhimurium TA1535; [3]) | Ames TA1535 −S9 (Mean revertants/well per title) (S. typhimurium TA1535; [4]) | Ames TA100 +S9 (Mean revertants/well per title) (S. typhimurium TA100; [3]) | Ames TA100 −S9 (Mean revertants/well per title) (S. typhimurium TA100; [4]) | Inhibition SH-SY5Y (% at 100 µM) (SH-SY5Y; 100 µM) [%] | cytotoxicity (SH-SY5Y) | Ames TA1537 +S9 (Mean revertants/well per title) (S. typhimurium TA1537; [3]) | Ames TA1537 −S9 (Mean revertants/well per title) (S. typhimurium TA1537; −S9, positive control 9-amino-acridine 1.56) | mutagenic effects (Ames, conclusion) (five bacterial strains)
O=C(NCCCNCc1ccccc1)c1ccc(Cl)cc1 [compound 7i-deMe] | 23 | > 1000 |  |  |  |  |  |  |  |  |  |  |  |  |  |  |  |  |  | 
CN(CCCNC(=O)c1ccc(Cl)cc1)Cc1ccccc1 [compound 7i] |  |  | −3 | 0 | 0 | 5 | 9 | significantly attenuated | prevented | significantly attenuated | prevented | 0.9 | 1.3 | 0.9 | 0.9 | 28 | no cytotoxicity | 1.1 | 0.9 | no mutagenic effects

Source: article PMC9569529, “Safe and Efficient Sigma1 Ligand: A Potential Drug Candidate for Multiple Sclerosis” (International Journal of Molecular Sciences, 2022)
